US5110800A, “Derivatives of erythromycylamine” (Eli Lilly and Company, priority 1989, dated 1992)
Converted amounts (≈) assume the structure as drawn. Where two headings read alike, the source gives them in different places.

Tests used:
Assay in all cases: MIC, standard agar-dilution assay
Format in all cases: cell-based
[1] = tested on: Staphylococcus aureus X1.1; details: Staphylococcus aureus, X1.1, read-out: minimal inhibitory concentration (MIC)
[2] = tested on: Staphylococcus aureus V41; details: Staphylococcus aureus, V41, penicillin-resistant strain, inducibly erythromycin-resistant, read-out: minimal inhibitory concentration (MIC)
Source text: (§1) In addition to excellent in vitro activity against erythromycin-sensitive bacteria, several members of this new series have shown in vitro activity against erythromycin-resistant strains. These include strains which are inducibly-resistant to erythromycin (S. aureus V41 and X400 and S. epidermidis EPI1) and even strains which are constitutively-resistant (S. epidermidis 270).

[3] = tested on: Staphylococcus aureus X400; details: Staphylococcus aureus, X400, methicillin-resistant strain, inducibly erythromycin-resistant, read-out: minimal inhibitory concentration (MIC)
Source text: as §1

[4] = tested on: Staphylococcus epidermidis EPI1; details: EPI1, read-out: minimal inhibitory concentration (MIC)
Source text: as §1

[5] = tested on: Staphylococcus epidermidis 222
[6] = tested on: Streptococcus pyogenes C203; details: Streptococcus pyogenes, C203, read-out: minimal inhibitory concentration (MIC)
[7] = tested on: Streptococcus pneumoniae Park I; details: Streptococcus pneumoniae, read-out: minimal inhibitory concentration (MIC)
[8] = tested on: Streptococcus sp. group D X66; details: Streptococcus, read-out: minimal inhibitory concentration (MIC)
[9] = tested on: Streptococcus sp. group D 2041; details: Streptococcus, read-out: minimal inhibitory concentration (MIC)
Escherichia coli EC14 = details: Escherichia coli
[10] = tested on: Klebsiella pneumoniae X68; details: Klebsiella pneumoniae
[11] = tested on: Staphylococcus aureus S13E; details: Staphylococcus aureus, S13E, read-out: minimal inhibitory concentration (MIC)
[12] = tested on: Haemophilus influenzae C.L.; details: Haemophilus influenzae, read-out: minimal inhibitory concentration (MIC)
[13] = tested on: Haemophilus influenzae 76; details: Haemophilus influenzae, 76, ampicillin-resistant strain, read-out: minimal inhibitory concentration (MIC)
[14] = tested on: Staphylococcus epidermidis 270; details: Staphylococcus epidermidis, 270; Table IV; constitutively erythromycin-resistant; read-out: minimal inhibitory concentration (MIC)
Source text: as §1

[15] = Staphylococcus epidermidis, 222, read-out: minimal inhibitory concentration (MIC)
[16] = EC14, Table V, agar dilution, read-out: minimal inhibitory concentration (MIC)
[17] = X68, Table V, agar dilution, read-out: minimal inhibitory concentration (MIC)
[18] = X68, read-out: minimal inhibitory concentration (MIC)
[19] = EC14, read-out: minimal inhibitory concentration (MIC)

CC[C@H]1OC(=O)[C@H](C)[C@@H](O[C@H]2C[C@@](C)(OC)[C@@H](O)[C@H](C)O2)[C@H](C)[C@@H](O[C@@H]2O[C@H](C)C[C@H](N(C)C)[C@H]2O)[C@](C)(O)C[C@@H](C)[C@H](N(C)C2CCCCC2)[C@H](C)[C@@H](O)[C@]1(C)O [Compound 71, 9-Deoxo-9-[(N-cyclohexyl-N-methyl)amino]erythromycin]
MIC [1]: 16 µg/mL (≈ 19.3 µM) | MIC ([2]; Table V): > 128 µg/mL | MIC ([3]; Table V): > 128 µg/mL | MIC [4]: > 128 µg/mL | MIC [5, 15]: 8 µg/mL (≈ 9.63 µM) | MIC [6]: 1 µg/mL (≈ 1.2 µM) | MIC [7]: 0.125 µg/mL (≈ 0.15 µM) | MIC [8]: 8 µg/mL (≈ 9.63 µM) | MIC [9]: 128 µg/mL (≈ 154 µM) | MIC (Escherichia coli EC14; [16]): > 128 µg/mL | MIC [10, 17]: > 128 µg/mL

CC[C@H]1OC(=O)[C@H](C)[C@@H](O[C@H]2C[C@@](C)(OC)[C@@H](O)[C@H](C)O2)[C@H](C)[C@@H](O[C@@H]2O[C@H](C)C[C@H](N(C)C)[C@H]2O)[C@](C)(O)C[C@@H](C)[C@H]2[C@H](C)[C@@H](OCN2C2CCCC2)[C@]1(C)O [Compound 60, 9-Deoxo-9-(cyclopentylamino)-9,11(N,O)-cyclic Methylene Adduct of Erythromycin]
MIC [1]: 1 µg/mL (≈ 1.23 µM) | MIC ([2]; Table V): > 128 µg/mL | MIC ([3]; Table V): > 128 µg/mL | MIC [4]: > 128 µg/mL | MIC [5, 15]: 1 µg/mL (≈ 1.23 µM) | MIC [6]: 0.125 µg/mL (≈ 0.153 µM) | MIC [7]: 0.06 µg/mL (≈ 0.0736 µM) | MIC [8]: 0.5 µg/mL (≈ 0.613 µM) | MIC [9]: 8 µg/mL (≈ 9.81 µM)

CC[C@H]1OC(=O)[C@H](C)[C@@H](O[C@H]2C[C@@](C)(OC)[C@@H](O)[C@H](C)O2)[C@H](C)[C@@H](O[C@@H]2O[C@H](C)C[C@H](N(C)C)[C@H]2O)[C@](C)(O)C[C@@H](C)[C@H]2[C@H](C)[C@@H](OCN2C(C)CCCN(C)C)[C@]1(C)O (some centres unmarked) [Compound 63, 9-Deoxo-9-[(5-dimethylamino-2-pentyl)amino]-9,11-(N,O)-cyclic-Methylene Adduct of Erythromycin]
MIC [1]: 8 µg/mL (≈ 9.3 µM) | MIC ([2]; Table V): > 128 µg/mL | MIC ([3]; Table V): > 128 µg/mL | MIC [4]: > 128 µg/mL | MIC [11]: 8 µg/mL (≈ 9.3 µM) | MIC [5, 15]: 8 µg/mL (≈ 9.3 µM) | MIC [6]: 0.5 µg/mL (≈ 0.581 µM) | MIC [7]: 0.5 µg/mL (≈ 0.581 µM) | MIC [8]: 2 µg/mL (≈ 2.33 µM) | MIC ([9]; Table V, agar dilution): 32 µg/mL (≈ 37.2 µM) | MIC ([12]; Table V, ampicillin-sensitive strain): 8 µg/mL (≈ 9.3 µM) | MIC ([13]; Table V): 8 µg/mL (≈ 9.3 µM) | MIC (Escherichia coli EC14; [16]): 32 µg/mL (≈ 37.2 µM) | MIC [10, 18]: 128 µg/mL (≈ 149 µM)

CC[C@H]1OC(=O)[C@H](C)[C@@H](O[C@H]2C[C@@](C)(OC)[C@@H](O)[C@H](C)O2)[C@H](C)[C@@H](O[C@@H]2O[C@H](C)C[C@H](N(C)C)[C@H]2O)[C@](C)(O)C[C@@H](C)[C@H](NCCOCCOC)[C@H](C)[C@@H](O)[C@H]1C [Compound 49]
MIC [1]: 1 µg/mL (≈ 1.22 µM) | MIC ([2]; Table IV): 128 µg/mL (≈ 156 µM) | MIC ([3]; Table IV): > 128 µg/mL | MIC [14]: > 128 µg/mL | MIC [11]: 0.5 µg/mL (≈ 0.609 µM) | MIC [5, 15]: 1 µg/mL (≈ 1.22 µM) | MIC [6]: 0.015 µg/mL (≈ 0.0183 µM) | MIC [7]: 0.015 µg/mL (≈ 0.0183 µM) | MIC [8]: 0.25 µg/mL (≈ 0.304 µM) | MIC ([9]; Table IV, agar dilution): 4 µg/mL (≈ 4.87 µM) | MIC ([12]; Table IV, ampicillin-sensitive strain): 4 µg/mL (≈ 4.87 µM) | MIC ([13]; Table IV): 8 µg/mL (≈ 9.74 µM) | MIC (Escherichia coli EC14; [19]): 128 µg/mL (≈ 156 µM) | MIC [10, 18]: 128 µg/mL (≈ 156 µM)

CC[C@H]1OC(=O)[C@H](C)[C@@H](O[C@H]2C[C@@](C)(OC)[C@@H](O)[C@H](C)O2)[C@H](C)[C@@H](O[C@@H]2O[C@H](C)C[C@H](N(C)C)[C@H]2O)[C@](C)(O)C[C@@H](C)[C@H](N(C)C(C)C)[C@H](C)[C@@H](O)[C@]1(C)O [Compound 70, 9-Deoxo-9-[(N-methyl-N-isopropyl)amino]erythromycin]
MIC [1]: 8 µg/mL (≈ 10.1 µM) | MIC ([2]; Table V): > 128 µg/mL | MIC ([3]; Table V): > 128 µg/mL | MIC [4]: > 128 µg/mL | MIC [5, 15]: 8 µg/mL (≈ 10.1 µM) | MIC [6]: 0.5 µg/mL (≈ 0.632 µM) | MIC [7]: 0.5 µg/mL (≈ 0.632 µM) | MIC [8]: 2 µg/mL (≈ 2.53 µM) | MIC (Escherichia coli EC14; [16]): > 128 µg/mL | MIC [10, 17]: > 128 µg/mL

CC[C@H]1OC(=O)[C@H](C)[C@@H](O[C@H]2C[C@@](C)(OC)[C@@H](O)[C@H](C)O2)[C@H](C)[C@@H](O[C@@H]2O[C@H](C)C[C@H](N(C)C)[C@H]2O)[C@](C)(O)C[C@@H](C)[C@H](NCCOC)[C@H](C)[C@@H](O)[C@]1(C)O [Compound 31, 9-Deoxo-9-[(2-Methoxyethyl)amino]erythromycin]
MIC [1]: 0.5 µg/mL (≈ 0.63 µM) | MIC ([2]; Table IV): > 128 µg/mL | MIC ([3]; Table IV): > 128 µg/mL | MIC [14]: > 128 µg/mL | MIC [11]: 0.5 µg/mL (≈ 0.63 µM) | MIC ([5]; Staphylococcus epidermidis, 222, Table IV, agar dilution, read-out: minimal inhibitory concentration (MIC)): 0.25 µg/mL (≈ 0.315 µM) | MIC [6]: 0.06 µg/mL (≈ 0.0757 µM) | MIC ([7]; Table IV, agar dilution): 0.03 µg/mL (≈ 0.0378 µM) | MIC ([8]; Table IV, agar dilution): 0.125 µg/mL (≈ 0.158 µM) | MIC [9]: 8 µg/mL (≈ 10.1 µM) | MIC [12]: 0.5 µg/mL (≈ 0.63 µM) | MIC ([13]; Table IV): 2 µg/mL (≈ 2.52 µM) | MIC (Escherichia coli EC14; [19]): 16 µg/mL (≈ 20.2 µM) | MIC ([10]; X68, Table IV, agar dilution, read-out: minimal inhibitory concentration (MIC)): 32 µg/mL (≈ 40.4 µM)

CC[C@H]1OC(=O)[C@H](C)[C@@H](O[C@H]2C[C@@](C)(OC)[C@@H](O)[C@H](C)O2)[C@H](C)[C@@H](O[C@@H]2O[C@H](C)C[C@H](N(C)C)[C@H]2O)[C@](C)(O)C[C@@H](C)[C@H](N(C)C)[C@H](C)[C@@H](O)[C@]1(C)O [Compound 69, 9-Deoxo-9-(dimethylamino)erythromycin]
MIC [4]: > 128 µg/mL | MIC [5, 15]: 2 µg/mL (≈ 2.62 µM) | MIC [6]: 0.25 µg/mL (≈ 0.328 µM) | MIC [8]: 0.5 µg/mL (≈ 0.655 µM) | MIC [12]: 2 µg/mL (≈ 2.62 µM) | MIC (Escherichia coli EC14; [19]): 128 µg/mL (≈ 168 µM) | MIC [10, 17]: > 128 µg/mL

CC[C@H]1OC(=O)[C@H](C)[C@@H](O[C@H]2C[C@@](C)(OC)[C@@H](O)[C@H](C)O2)[C@H](C)[C@@H](O[C@@H]2O[C@H](C)C[C@H](N(C)C)[C@H]2O)[C@](C)(O)C[C@@H](C)[C@H](N2CCCCC2)[C@H](C)[C@@H](O)[C@]1(C)O [Compound 72, 9-Deoxo-9-(1-piperidinyl)erythromycin]
MIC [1]: 16 µg/mL (≈ 19.9 µM) | MIC ([2]; Table V): > 128 µg/mL | MIC ([3]; Table V): > 128 µg/mL | MIC [4]: > 128 µg/mL | MIC [5, 15]: 8 µg/mL (≈ 9.96 µM) | MIC [6]: 1 µg/mL (≈ 1.25 µM) | MIC [7]: 1 µg/mL (≈ 1.25 µM) | MIC [9]: 128 µg/mL (≈ 159 µM) | MIC [12]: 2 µg/mL (≈ 2.49 µM) | MIC (Escherichia coli EC14; [16]): > 128 µg/mL | MIC [10, 17]: > 128 µg/mL

CCCN[C@@H]1[C@H](C)[C@@H](O)[C@@H](C)[C@@H](CC)OC(=O)[C@H](C)[C@@H](O[C@H]2C[C@@](C)(OC)[C@@H](O)[C@H](C)O2)[C@H](C)[C@@H](O[C@@H]2O[C@H](C)C[C@H](N(C)C)[C@H]2O)[C@](C)(O)C[C@H]1C [Compound 38]
MIC [1]: 0.5 µg/mL (≈ 0.657 µM) | MIC ([2]; Table IV): 8 µg/mL (≈ 10.5 µM) | MIC ([3]; Table IV): 64 µg/mL (≈ 84.1 µM) | MIC [14]: > 128 µg/mL | MIC [11]: 1 µg/mL (≈ 1.31 µM) | MIC [5, 15]: 0.5 µg/mL (≈ 0.657 µM) | MIC [6]: 0.125 µg/mL (≈ 0.164 µM) | MIC [7]: 0.125 µg/mL (≈ 0.164 µM) | MIC [8]: 0.125 µg/mL (≈ 0.164 µM) | MIC [9]: 2 µg/mL (≈ 2.63 µM) | MIC [12]: 2 µg/mL (≈ 2.63 µM) | MIC ([13]; Table IV): 4 µg/mL (≈ 5.26 µM) | MIC (Escherichia coli EC14; EC14, Table IV, agar dilution, read-out: minimal inhibitory concentration (MIC)): 64 µg/mL (≈ 84.1 µM) | MIC [10, 18]: 128 µg/mL (≈ 168 µM)

CCCN1CO[C@@H]2[C@@H](C)[C@@H]1[C@H](C)C[C@@](C)(O)[C@H](O[C@@H]1O[C@H](C)C[C@H](N(C)C)[C@H]1O)[C@@H](C)[C@H](O[C@H]1C[C@@](C)(OC)[C@@H](O)[C@H](C)O1)[C@@H](C)C(=O)O[C@H](CC)[C@@]2(C)O [Compound 59]
MIC [4]: > 128 µg/mL | MIC [5, 15]: 0.125 µg/mL (≈ 0.158 µM) | MIC [8]: 0.125 µg/mL (≈ 0.158 µM)
